Reference: PubChem BioAssay AID1745844 (Carcinogenic Potency Database (CPDB), 2022)

System: rodent lifetime carcinogenesis bioassay, tumor incidence TD50
Assay: chronic cancer bioassays in animals – CPDB, compiled studies (AID 1745844)

SMILES: O=NN1CC(=O)NC1=O
- TD50 (rat, strain MRC-Wistar, females, in drinking water, site: any site (literature study), lesion: several types, types named in the paper, dosed 52 weeks, study length 110 weeks): 19.6 mg/kg/day
- TD50 (rat, strain MRC-Wistar, males, in drinking water, site: any site (literature study), lesion: several types, types named in the paper, dosed 52 weeks, study length 110 weeks): 7.31 mg/kg/day
- TD50 (rat, strain MRC-Wistar, males, in drinking water, site: forestomach, lesion: squamous-cell papilloma, dosed 52 weeks, study length 110 weeks): 27.8 mg/kg/day
- TD50 (rat, strain MRC-Wistar, males, in drinking water, site: pharynx, lesion: squamous-cell carcinoma, dosed 52 weeks, study length 110 weeks): 43.8 mg/kg/day

SMILES: CC(=O)Nc1ccc(-c2ccc(F)cc2)cc1
- TD50 (rat, strain Fischer 344, males, in feed, site: kidney, lesion: adenocarcinoma, dosed 52 weeks, study length 52 weeks): 1.01 mg/kg/day

SMILES: Brc1cc(Br)c(-c2cc(Br)c(Br)cc2Br)cc1Br
- TD50 (mouse, strain B6C3F1, females, by gavage, site: any site (literature study), lesion: several types, types named in the paper, dosed 26 weeks, study length 131 weeks): 0.338 mg/kg/day
- TD50 (mouse, strain B6C3F1, females, by gavage, site: liver, lesion: hepatocellular adenoma + hepatocellular carcinoma + neoplastic nodule, dosed 26 weeks, study length 131 weeks): 0.402 mg/kg/day
- TD50 (mouse, strain B6C3F1, females, by gavage, site: liver, lesion: hepatocellular carcinoma, dosed 26 weeks, study length 131 weeks): 0.534 mg/kg/day
- TD50 (mouse, strain B6C3F1, females, by gavage, site: lung, lesion: alveolar/bronchiolar adenoma + alveolar/bronchiolar carcinoma, dosed 26 weeks, study length 131 weeks): 0.915 mg/kg/day
- TD50 (mouse, strain B6C3F1, females, in feed, site: any site (literature study), lesion: several types, types named in the paper, dosed 105 weeks, study length 105 weeks): 0.362 mg/kg/day
- TD50 (mouse, strain B6C3F1, females, in feed, site: liver, lesion: hepatocellular adenoma + hepatoblastoma + hepatocellular carcinoma, dosed 105 weeks, study length 105 weeks): 0.307 mg/kg/day
- TD50 (mouse, strain B6C3F1, females, in feed, site: liver, lesion: hepatocellular adenoma + hepatocellular carcinoma, dosed 105 weeks, study length 105 weeks): 0.307 mg/kg/day
- TD50 (mouse, strain B6C3F1, females, in feed, site: liver, lesion: hepatocellular adenoma, dosed 105 weeks, study length 105 weeks): 0.367 mg/kg/day
- TD50 (mouse, strain B6C3F1, females, in feed, site: liver, lesion: hepatocellular carcinoma, dosed 105 weeks, study length 105 weeks): 0.588 mg/kg/day
- TD50 (mouse, strain B6C3F1, females, in feed, site: lung, lesion: alveolar/bronchiolar adenoma + alveolar/bronchiolar carcinoma, dosed 105 weeks, study length 105 weeks): 19.1 mg/kg/day
- TD50 (mouse, strain B6C3F1, males, by gavage, site: any site (literature study), lesion: several types, types named in the paper, dosed 26 weeks, study length 131 weeks): 0.418 mg/kg/day
- TD50 (mouse, strain B6C3F1, males, by gavage, site: liver, lesion: hepatocellular adenoma + hepatocellular carcinoma + neoplastic nodule, dosed 26 weeks, study length 131 weeks): 0.285 mg/kg/day
- TD50 (mouse, strain B6C3F1, males, by gavage, site: liver, lesion: hepatocellular carcinoma, dosed 26 weeks, study length 131 weeks): 0.381 mg/kg/day
- TD50 (mouse, strain B6C3F1, males, in feed, site: any site (literature study), lesion: several types, types named in the paper, dosed 105 weeks, study length 105 weeks): 0.349 mg/kg/day
- TD50 (mouse, strain B6C3F1, males, in feed, site: liver, lesion: hepatocellular adenoma + hepatoblastoma + hepatocellular carcinoma, dosed 105 weeks, study length 105 weeks): 0.262 mg/kg/day
- TD50 (mouse, strain B6C3F1, males, in feed, site: liver, lesion: hepatocellular adenoma + hepatocellular carcinoma, dosed 105 weeks, study length 105 weeks): 0.262 mg/kg/day
- TD50 (mouse, strain B6C3F1, males, in feed, site: liver, lesion: hepatocellular adenoma, dosed 105 weeks, study length 105 weeks): 0.233 mg/kg/day
- TD50 (mouse, strain B6C3F1, males, in feed, site: liver, lesion: hepatocellular carcinoma, dosed 105 weeks, study length 105 weeks): 0.54 mg/kg/day
- TD50 (mouse, strain B6C3F1, males, in feed, site: lung, lesion: alveolar/bronchiolar adenoma + alveolar/bronchiolar carcinoma, dosed 105 weeks, study length 105 weeks): 54.9 mg/kg/day
- TD50 (rat, strain Fischer 344, females, by gavage, site: any site (literature study), lesion: several types, types named in the paper, dosed 25 weeks, study length 124 weeks): 0.365 mg/kg/day
- TD50 (rat, strain Fischer 344, females, by gavage, site: liver, lesion: cholangiocarcinoma + hepatocellular carcinoma + neoplastic nodule, dosed 25 weeks, study length 124 weeks): 0.596 mg/kg/day
- TD50 (rat, strain Fischer 344, females, by gavage, site: liver, lesion: cholangiocarcinoma, dosed 25 weeks, study length 124 weeks): 2.1 mg/kg/day
- TD50 (rat, strain Fischer 344, females, by gavage, site: liver, lesion: hepatocellular adenoma + hepatocellular carcinoma + neoplastic nodule, dosed 25 weeks, study length 124 weeks): 0.645 mg/kg/day
- TD50 (rat, strain Fischer 344, females, by gavage, site: liver, lesion: hepatocellular carcinoma, dosed 25 weeks, study length 124 weeks): 1.65 mg/kg/day
- TD50 (rat, strain Fischer 344, females, by gavage, site: liver, lesion: neoplastic nodule, dosed 25 weeks, study length 124 weeks): 1.1 mg/kg/day
- TD50 (rat, strain Fischer 344, females, in feed, site: any site (literature study), lesion: several types, types named in the paper, dosed 104 weeks, study length 104 weeks): 2.38 mg/kg/day
- TD50 (rat, strain Fischer 344, females, in feed, site: liver, lesion: hepatocellular adenoma + hepatoblastoma + hepatocellular carcinoma, dosed 104 weeks, study length 104 weeks): 0.656 mg/kg/day
- TD50 (rat, strain Fischer 344, females, in feed, site: liver, lesion: hepatocellular adenoma + hepatocellular carcinoma, dosed 104 weeks, study length 104 weeks): 0.656 mg/kg/day
- TD50 (rat, strain Fischer 344, females, in feed, site: liver, lesion: hepatocellular adenoma, dosed 104 weeks, study length 104 weeks): 0.7 mg/kg/day
- TD50 (rat, strain Fischer 344, females, in feed, site: liver, lesion: hepatocellular carcinoma, dosed 104 weeks, study length 104 weeks): 8.22 mg/kg/day
- TD50 (rat, strain Fischer 344, females, in feed, site: mammary gland, lesion: fibroadenoma, dosed 104 weeks, study length 104 weeks): 1.59 mg/kg/day
- TD50 (rat, strain Fischer 344, males, by gavage, site: any site (literature study), lesion: several types, types named in the paper, dosed 25 weeks, study length 118 weeks): 0.0645 mg/kg/day
- TD50 (rat, strain Fischer 344, males, by gavage, site: liver, lesion: cholangiocarcinoma + hepatocellular carcinoma + neoplastic nodule, dosed 25 weeks, study length 118 weeks): 0.148 mg/kg/day
- TD50 (rat, strain Fischer 344, males, by gavage, site: liver, lesion: cholangiocarcinoma, dosed 25 weeks, study length 118 weeks): 14.4 mg/kg/day
- TD50 (rat, strain Fischer 344, males, by gavage, site: liver, lesion: hepatocellular adenoma + hepatocellular carcinoma + neoplastic nodule, dosed 25 weeks, study length 118 weeks): 0.151 mg/kg/day
- TD50 (rat, strain Fischer 344, males, by gavage, site: liver, lesion: hepatocellular carcinoma, dosed 25 weeks, study length 118 weeks): 1.3 mg/kg/day
- TD50 (rat, strain Fischer 344, males, by gavage, site: liver, lesion: neoplastic nodule, dosed 25 weeks, study length 118 weeks): 0.168 mg/kg/day
- TD50 (rat, strain Fischer 344, males, in feed, site: any site (literature study), lesion: several types, types named in the paper, dosed 104 weeks, study length 104 weeks): 1.56 mg/kg/day
- TD50 (rat, strain Fischer 344, males, in feed, site: liver, lesion: hepatocellular adenoma + hepatoblastoma + hepatocellular carcinoma, dosed 104 weeks, study length 104 weeks): 0.408 mg/kg/day
- TD50 (rat, strain Fischer 344, males, in feed, site: liver, lesion: hepatocellular adenoma + hepatocellular carcinoma, dosed 104 weeks, study length 104 weeks): 0.408 mg/kg/day
- TD50 (rat, strain Fischer 344, males, in feed, site: liver, lesion: hepatocellular adenoma, dosed 104 weeks, study length 104 weeks): 0.461 mg/kg/day
- TD50 (rat, strain Fischer 344, males, in feed, site: liver, lesion: hepatocellular carcinoma, dosed 104 weeks, study length 104 weeks): 1.19 mg/kg/day
